Measured values as given in ChEMBL document CHEMBL4483862, “Open-source discovery of chemical leads for next-generation chemoprotective antimalarials” (2018).

Test system: Plasmodium berghei
Assay: Luciferase/luciferin-expressing antifolate-resistant parasites were used to infect a culture of HepG2 cells that were pre-incubated with compounds. Infected hepatocytes emit light due to the luciferase reaction. Assay results are presented as the percent inhibition of light emission compared to control. […]
Format: functional
Settings: sporozoite; for IC90: read-out: LUCIFERASE INFECTION ASSAY - IC90
[1] = read-out: LUCIFERASE INFECTION ASSAY - IC50

Row | SMILES | IC90 | IC50 [1] | further results
1 | CN(C)c1ccc(-c2cnc3cnc(-c4ccc(O)cc4)cn23)cc1 | 1.76 µM |  | IC50 (HEPG2TOX_HILL_SLOPE 0.921, HEPG2TOX_R_SQUARED 0.948, PBLUC_HILL_SLOPE 0.805, PBLUC_R_SQUARED 0.912, read-out: LUCIFERASE INFECTION ASSAY - IC50): 0.115 µM
2 | O=C(Nc1cccc(NC(=O)c2ccccc2Nc2ccccc2)c1)c1ccco1 | > 10 µM |  | IC50 (PBLUC_HILL_SLOPE 2.3, PBLUC_R_SQUARED 0.121, read-out: LUCIFERASE INFECTION ASSAY - IC50): 5.43 µM
3 | CN(C)C(=O)N1CCC(C(=O)N2CC(=O)N(C3CCCCC3)CC(OCc3ccncc3)C2)CC1 (configuration not stated) | > 6.8 µM | > 6.8 µM | 
4 | O=C(Nc1nc2ccccc2[nH]1)c1ccc(S(=O)(=O)N2CCc3ccccc3C2)cc1 | > 10 µM |  | IC50 (FFLUC_HILL_SLOPE 9.27, FFLUC_R_SQUARED 0.301, PBLUC_HILL_SLOPE 0.89, PBLUC_R_SQUARED 0.688, read-out: LUCIFERASE INFECTION ASSAY - IC50): 4.81 µM
5 | Cc1ccc(-c2csc(NC(=O)C3CCN(c4ncnc5sc(C)c(C)c45)CC3)n2)cc1 | 1.74 µM |  | IC50 (FFLUC_HILL_SLOPE 3.71, FFLUC_R_SQUARED 0.648, HEPG2TOX_HILL_SLOPE 2.17, HEPG2TOX_R_SQUARED 0.62, PBLUC_HILL_SLOPE 8.52, PBLUC_R_SQUARED 0.61, read-out: LUCIFERASE INFECTION ASSAY - IC50): 1.35 µM
6 | O=C(Cc1ccc(Cl)cc1)N1CCc2nc(NCc3cccc(Oc4ccccc4)c3)ncc2C1 | > 6.8 µM |  | IC50 (PBLUC_HILL_SLOPE 4.18, PBLUC_R_SQUARED 0.529, read-out: LUCIFERASE INFECTION ASSAY - IC50): 4.95 µM
7 | CC(C)(C)c1ccc(/C=C/C(=O)NCc2ccc(NC(=O)C3CC3)cc2)cc1 | 6.63 µM | 2.38 µM | 
8 | c1ccc(-c2nc(NCCCN3CCOCC3)c3cc(-c4ccccc4)sc3n2)cc1 | > 10 µM |  | IC50 (PBLUC_HILL_SLOPE 16.1, PBLUC_R_SQUARED 0.337, read-out: LUCIFERASE INFECTION ASSAY - IC50): 9.75 µM
9 | CC(C)(c1ccc(O)cc1)c1ccc(Cl)cc1 | > 10 µM | > 10 µM | 
10 | COc1ccc(Sc2ccc(NC(=O)c3ccc(Cl)cc3Cl)cc2C#N)cc1 | > 7.69 µM | > 7.69 µM | 
11 | CNc1nc2cnc(Nc3cccc(C(C)C)c3)cc2n1Cc1ccco1 | > 10 µM | > 10 µM | 
12 | COc1ccc2c(c1)CCCN2C(=O)c1occc1C | 1.23 µM |  | IC50 (HEPG2TOX_HILL_SLOPE 0.966, HEPG2TOX_R_SQUARED 0.937, PBLUC_HILL_SLOPE 15.5, PBLUC_R_SQUARED 0.354, read-out: LUCIFERASE INFECTION ASSAY - IC50): 1.07 µM
13 | Cc1ccc2c(c1)CCCN2CC(=O)Nc1sccc1C(N)=O | > 10 µM | > 10 µM | 
14 | COc1ccc(-c2c[n+]3c4n2CCCCC4=C(c2ccccc2)C3)cc1 | > 10 µM |  | IC50 (PBLUC_HILL_SLOPE 3.06, PBLUC_R_SQUARED 0.525, read-out: LUCIFERASE INFECTION ASSAY - IC50): 6.77 µM
15 | COc1ccc(-c2cnc3cnc(-c4ccco4)cn23)cc1 | 7.67 µM |  | IC50 (HEPG2TOX_HILL_SLOPE 2.99, HEPG2TOX_R_SQUARED 0.923, PBLUC_HILL_SLOPE 3.57, PBLUC_R_SQUARED 0.717, read-out: LUCIFERASE INFECTION ASSAY - IC50): 4.15 µM
16 | CN1CCN(C(=O)c2cccc(-c3cnc4cnc(-c5cccc(Cl)c5)cn34)c2)CC1 | > 7.64 µM |  | IC50 (PBLUC_HILL_SLOPE 2.84, PBLUC_R_SQUARED 0.435, read-out: LUCIFERASE INFECTION ASSAY - IC50): 4.45 µM
17 | Cc1nc2ccccc2n1CCNC(=O)N1CCN(c2ccc(C(F)(F)F)cc2[N+](=O)[O-])CC1 | > 10 µM | > 10 µM | 
18 | Cc1nc(NCc2ccc(-n3ccnc3)nc2)c2c(-c3ccccc3)csc2n1 | 4.03 µM |  | IC50 (HEPG2TOX_HILL_SLOPE 1.9, HEPG2TOX_R_SQUARED 0.893, PBLUC_HILL_SLOPE 8.93, PBLUC_R_SQUARED 0.705, read-out: LUCIFERASE INFECTION ASSAY - IC50): 3.15 µM
19 | Cc1cccc(N2CCN(c3cc(C)nc4c(-c5ccccc5)c(C)nn34)CC2)n1 | > 8.28 µM | > 8.28 µM | 
20 | Nc1c(C(=O)Nc2nc3ccccc3s2)sc2ncccc12 | 0.512 µM | 0.00465 µM | 
21 | CCOc1cc(C(=O)N2CCOCC2)ccc1OCc1cccnc1 | > 10 µM | > 10 µM | 
22 | Cc1nc2cc(NC(C)C(=O)Nc3ccc([N+](=O)[O-])cc3Cl)ccc2o1 (configuration not stated) | > 10 µM | > 10 µM | 
23 | CN(C(=O)CN1C(=O)NC(c2ccccc2)(c2ccccc2)C1=O)C1CCCc2ccccc21 (configuration not stated) | > 10 µM |  | IC50 (PBLUC_HILL_SLOPE 2.94, PBLUC_R_SQUARED 0.848, read-out: LUCIFERASE INFECTION ASSAY - IC50): 5.62 µM

Row | SMILES | IC90 | IC50 [1] | further results
24 | C=CCN(c1ccccc1)S(=O)(=O)c1cc(C(=O)NCc2ccc3c(c2)OCO3)ccc1Cl | > 10 µM | > 10 µM | 
25 | O=C(Nc1ccc(Cl)cc1)O/N=C\c1ccc(C#Cc2ccccc2)cc1 | > 8.8 µM | > 8.8 µM | 
26 | Cn1c(NCC2CCCO2)nc2cnc(-c3cccc(Oc4ccccc4)c3)cc21 (configuration not stated) | > 10 µM | > 10 µM | 
27 | CC(C)(NCC(=O)Nc1ccccc1C(N)=O)c1ccc2c(c1)OCO2 | > 10 µM |  | IC50 (PBLUC_HILL_SLOPE 7.96, PBLUC_R_SQUARED 0.17, read-out: LUCIFERASE INFECTION ASSAY - IC50): > 10 µM
28 | COCCCN1C(=O)N(Cc2ccccc2)C(=O)C12CCN(Cc1cccc(C(F)(F)F)c1)CC2 | > 6.74 µM |  | IC50 (HEPG2TOX_HILL_SLOPE 5.47, HEPG2TOX_R_SQUARED 0.316, read-out: LUCIFERASE INFECTION ASSAY - IC50): > 6.74 µM
29 | CC(OC(=O)c1c(NC(=O)C2CCCCC2)sc2c1CCC2)C(=O)Nc1[nH]cnc2ncnc1-2 (configuration not stated) | > 10 µM |  | IC50 (HEPG2TOX_HILL_SLOPE 8.29, HEPG2TOX_R_SQUARED 0.38, read-out: LUCIFERASE INFECTION ASSAY - IC50): > 10 µM
30 | O=C(Nc1nc2c(s1)CCCC2)c1cc(F)c(F)c(F)c1F | 0.624 µM | 0.081 µM | 
31 | COc1ccccc1N(C(=O)c1cccc(C#N)c1)c1nc2ccccc2s1 | > 10 µM | > 10 µM | 
32 | CN(C)S(=O)(=O)c1cccc(C(=O)Nc2nc3ccc(Oc4ccccc4)cc3s2)c1 | > 10 µM |  | IC50 (HEPG2TOX_HILL_SLOPE 15.9, HEPG2TOX_R_SQUARED 0.649, PBLUC_HILL_SLOPE 3.03, PBLUC_R_SQUARED 0.302, read-out: LUCIFERASE INFECTION ASSAY - IC50): 5.87 µM
33 | CC1CCc2ccccc2N1CC(=O)N(CCC(N)=O)Cc1ccccc1 (configuration not stated) | > 10 µM | > 10 µM | 
34 | Cc1ccc(-n2c(SCC(=O)NC34CC5CC(CC(C5)C3)C4)nnc2-c2ccccc2)cc1C | > 10 µM |  | IC50 (FFLUC_HILL_SLOPE 8.79, FFLUC_R_SQUARED 0.279, read-out: LUCIFERASE INFECTION ASSAY - IC50): > 10 µM
35 | COc1ccc(CC(=O)NCc2ccccc2Cl)cc1 | > 11.4 µM |  | IC50 (HEPG2TOX_HILL_SLOPE 3.79, HEPG2TOX_R_SQUARED 0.83, read-out: LUCIFERASE INFECTION ASSAY - IC50): > 11.4 µM
36 | CC(C)(C)c1ccc(-c2nnc(SCC(=O)N(Cc3ccccc3)c3nc(-c4ccc(Cl)cc4)cs3)n2-c2ccc(Br)cc2)cc1 | > 10 µM | > 10 µM | 
37 | Cc1c(C(=O)OCC(=O)c2ccc(OC(F)F)cc2)sc2nc3n(c(=O)c12)CCC3 | 9.86 µM |  | IC50 (PBLUC_HILL_SLOPE 10.3, PBLUC_R_SQUARED 0.714, read-out: LUCIFERASE INFECTION ASSAY - IC50): 7.97 µM
38 | Cc1ccc(S(=O)(=O)N2CCC(C(=O)Nc3nnc(-c4ccc(Cl)cc4)o3)CC2)c(C)c1 | > 10 µM | > 10 µM | 
39 | COc1ccc(/C=C/C(=O)c2cc(Cl)c(OC)cc2OC)cc1O | 1.26 µM |  | IC50 (HEPG2TOX_HILL_SLOPE 1.17, HEPG2TOX_R_SQUARED 0.559, PBLUC_HILL_SLOPE 18.3, PBLUC_R_SQUARED 0.538, read-out: LUCIFERASE INFECTION ASSAY - IC50): 1.12 µM
40 | COc1ccc(-c2cnc3cnc(-c4ccc(C(=O)NC5CC5)cc4)cn23)cn1 | > 8.56 µM |  | IC50 (PBLUC_HILL_SLOPE 21.9, PBLUC_R_SQUARED 0.538, read-out: LUCIFERASE INFECTION ASSAY - IC50): 7.8 µM
41 | Cc1ccsc1/C=N/Nc1ncc(Cl)cc1Cl | > 10 µM |  | IC50 (FFLUC_HILL_SLOPE 11.7, FFLUC_R_SQUARED 0.18, PBLUC_HILL_SLOPE 22.2, PBLUC_R_SQUARED 0.267, read-out: LUCIFERASE INFECTION ASSAY - IC50): 9.19 µM
42 | C=CCN(C(=O)/C(=C/c1ccccc1)n1nnnc1C)c1nc(-c2ccccc2)cs1 | 5.71 µM |  | IC50 (HEPG2TOX_HILL_SLOPE 12.1, HEPG2TOX_R_SQUARED 0.931, PBLUC_HILL_SLOPE 6.74, 7.08, PBLUC_R_SQUARED 0.881, 0.796, read-out: LUCIFERASE INFECTION ASSAY - IC50): 4.16 µM
43 | Cc1cnc(C(=O)OCC(=O)NCCc2ccccc2)cn1 | > 10 µM | > 10 µM | 
44 | COc1ccc(C(=O)NCC#Cc2cccc(C(F)(F)F)c2)cn1 | > 10 µM |  | IC50 (FFLUC_HILL_SLOPE 300, FFLUC_R_SQUARED 0.355, read-out: LUCIFERASE INFECTION ASSAY - IC50): > 10 µM
45 | COc1ccc(/C=C(/C(=O)Nc2ccc(C)c(C)c2)c2nc3ccccc3s2)cc1 | 3.66 µM |  | IC50 (HEPG2TOX_HILL_SLOPE 13.8, HEPG2TOX_R_SQUARED 0.904, PBLUC_HILL_SLOPE 19.4, PBLUC_R_SQUARED 0.196, read-out: LUCIFERASE INFECTION ASSAY - IC50): 3.27 µM
46 | COc1cccc(-c2cnn3ccc(Nc4ccc(NS(=O)(=O)c5ccc(C)cc5)cc4)nc23)c1 | > 6.8 µM |  | IC50 (HEPG2TOX_HILL_SLOPE 3.16, HEPG2TOX_R_SQUARED 0.917, PBLUC_HILL_SLOPE 15.1, PBLUC_R_SQUARED 0.0764, read-out: LUCIFERASE INFECTION ASSAY - IC50): 6.21 µM
